Laboratory results reported in PMC8799717, “Pharmacological targeting PIKfyve and tubulin as an effective treatment strategy for double-hit lymphoma” (Cell Death Discovery, 2022).

Assays:
Assay in all cases: biochemical
Set-up in all cases: KINOMEscan active-site-directed competition binding panel, 468 kinases, percent of DMSO control at 1 uM
Conditions in all cases: KINOMEscan binding, percent of DMSO control; read-out: Ctrl%
[1] = target: T1, ABL1(M351T)-phosphorylated (Homo sapiens, UniProt P00519, M351T)
T1 construct: phosphorylated

[2] = target: ACVR1 (Homo sapiens, UniProt Q04771)
[3] = target: T2, CAMK1B (Homo sapiens, UniProt Q6P2M8)
T2 construct: gene PNCK

[4] = target: CLK2 (Homo sapiens, UniProt P49760)
[5] = target: CSNK1E (Homo sapiens, UniProt P49674)
Chain of CSNK1E (P49674 whole entry): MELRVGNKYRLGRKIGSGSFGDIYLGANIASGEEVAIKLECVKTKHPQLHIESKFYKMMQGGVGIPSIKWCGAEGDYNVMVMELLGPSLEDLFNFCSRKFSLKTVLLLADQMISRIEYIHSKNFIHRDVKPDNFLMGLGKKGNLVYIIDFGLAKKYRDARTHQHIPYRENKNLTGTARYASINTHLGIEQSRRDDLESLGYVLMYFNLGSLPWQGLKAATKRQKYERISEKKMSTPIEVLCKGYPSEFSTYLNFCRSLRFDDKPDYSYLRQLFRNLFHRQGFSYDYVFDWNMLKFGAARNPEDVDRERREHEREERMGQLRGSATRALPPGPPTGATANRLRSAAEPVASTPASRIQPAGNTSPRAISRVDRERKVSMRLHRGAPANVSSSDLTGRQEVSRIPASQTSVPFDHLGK

[6] = target: EGFR(L747-T751del,Sins) (Homo sapiens, UniProt P00533, DEL747-750/T751S)
[7] = target: EGFR(L858R,T790M) (Homo sapiens, UniProt P00533, L858R/T790M)
[8] = target: EPHB6 (Homo sapiens, UniProt O15197)
[9] = target: ERBB3 (Homo sapiens, UniProt P21860)
Chain of ERBB3 (P21860 whole entry): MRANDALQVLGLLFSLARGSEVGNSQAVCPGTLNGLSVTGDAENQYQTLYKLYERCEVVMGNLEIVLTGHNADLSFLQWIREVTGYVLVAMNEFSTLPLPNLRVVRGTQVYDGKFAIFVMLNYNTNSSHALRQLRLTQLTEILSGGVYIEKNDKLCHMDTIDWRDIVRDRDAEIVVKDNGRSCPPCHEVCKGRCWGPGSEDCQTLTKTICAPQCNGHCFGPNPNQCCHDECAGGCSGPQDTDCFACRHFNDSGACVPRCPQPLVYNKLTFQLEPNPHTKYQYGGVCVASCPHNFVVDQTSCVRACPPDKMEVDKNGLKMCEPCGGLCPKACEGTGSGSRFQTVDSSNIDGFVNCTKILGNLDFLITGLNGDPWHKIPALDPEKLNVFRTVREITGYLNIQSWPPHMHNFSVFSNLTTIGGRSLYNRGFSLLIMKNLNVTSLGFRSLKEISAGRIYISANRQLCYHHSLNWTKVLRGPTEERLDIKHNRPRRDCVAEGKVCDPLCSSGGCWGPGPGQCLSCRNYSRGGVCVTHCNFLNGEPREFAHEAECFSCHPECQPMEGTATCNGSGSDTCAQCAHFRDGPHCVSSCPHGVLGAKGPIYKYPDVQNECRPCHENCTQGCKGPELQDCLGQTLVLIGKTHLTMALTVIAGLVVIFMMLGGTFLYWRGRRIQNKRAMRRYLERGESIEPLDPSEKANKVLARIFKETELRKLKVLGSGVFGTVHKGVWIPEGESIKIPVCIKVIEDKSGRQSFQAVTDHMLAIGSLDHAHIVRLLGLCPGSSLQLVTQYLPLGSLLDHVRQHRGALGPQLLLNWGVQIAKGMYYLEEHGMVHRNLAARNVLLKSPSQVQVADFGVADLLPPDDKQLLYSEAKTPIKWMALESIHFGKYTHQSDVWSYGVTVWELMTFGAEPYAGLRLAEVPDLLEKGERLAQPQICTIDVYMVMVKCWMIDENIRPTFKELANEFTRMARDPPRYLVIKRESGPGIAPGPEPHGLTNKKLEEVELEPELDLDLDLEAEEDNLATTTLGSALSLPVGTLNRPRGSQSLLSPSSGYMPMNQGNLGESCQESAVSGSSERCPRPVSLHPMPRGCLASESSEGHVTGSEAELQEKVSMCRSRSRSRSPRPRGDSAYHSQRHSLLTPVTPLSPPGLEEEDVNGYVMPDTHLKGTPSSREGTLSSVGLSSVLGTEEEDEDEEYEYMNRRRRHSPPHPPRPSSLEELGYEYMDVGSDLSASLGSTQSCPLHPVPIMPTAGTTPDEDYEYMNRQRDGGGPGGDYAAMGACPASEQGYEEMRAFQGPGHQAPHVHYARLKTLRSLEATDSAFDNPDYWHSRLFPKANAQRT

[10] = target: T3, ERK1 (Homo sapiens, UniProt P27361)
T3 construct: gene MAPK3

[11] = target: T4, ERK8 (Homo sapiens, UniProt Q8TD08)
T4 construct: gene MAPK15

[12] = target: HASPIN (Homo sapiens, UniProt Q8TF76)
Chain of HASPIN (Q8TF76 whole entry): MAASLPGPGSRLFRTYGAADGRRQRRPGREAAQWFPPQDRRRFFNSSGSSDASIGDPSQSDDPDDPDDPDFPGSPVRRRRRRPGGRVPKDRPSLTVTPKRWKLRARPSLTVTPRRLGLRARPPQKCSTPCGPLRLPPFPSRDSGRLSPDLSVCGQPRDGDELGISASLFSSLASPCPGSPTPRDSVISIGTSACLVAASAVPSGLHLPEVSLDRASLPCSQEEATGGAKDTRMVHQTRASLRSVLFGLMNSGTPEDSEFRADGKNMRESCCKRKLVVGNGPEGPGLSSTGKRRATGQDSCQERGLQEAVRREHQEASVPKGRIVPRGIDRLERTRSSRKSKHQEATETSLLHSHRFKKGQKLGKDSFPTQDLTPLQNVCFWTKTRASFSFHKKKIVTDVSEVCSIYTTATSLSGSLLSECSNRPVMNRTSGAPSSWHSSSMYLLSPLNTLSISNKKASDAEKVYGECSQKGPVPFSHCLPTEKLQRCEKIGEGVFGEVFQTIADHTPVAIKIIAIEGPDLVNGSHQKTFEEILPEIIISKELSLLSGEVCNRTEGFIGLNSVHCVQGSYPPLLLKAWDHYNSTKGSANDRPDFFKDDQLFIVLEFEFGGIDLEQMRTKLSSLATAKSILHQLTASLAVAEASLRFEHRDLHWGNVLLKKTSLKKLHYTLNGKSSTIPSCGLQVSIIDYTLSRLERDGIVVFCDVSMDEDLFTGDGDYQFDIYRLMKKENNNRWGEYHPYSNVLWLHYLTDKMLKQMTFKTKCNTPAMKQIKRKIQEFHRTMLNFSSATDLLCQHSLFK

[13] = target: HCK (Homo sapiens, UniProt P08631)
[14] = target: T5, JAK3(JH1domain-catalytic) (Homo sapiens, UniProt P52333)
T5 construct: JH1domain-catalytic

[15] = target: T6, JNK1 (Homo sapiens, UniProt P45983)
T6 construct: gene MAPK8
T6 sequence (P45983 whole entry): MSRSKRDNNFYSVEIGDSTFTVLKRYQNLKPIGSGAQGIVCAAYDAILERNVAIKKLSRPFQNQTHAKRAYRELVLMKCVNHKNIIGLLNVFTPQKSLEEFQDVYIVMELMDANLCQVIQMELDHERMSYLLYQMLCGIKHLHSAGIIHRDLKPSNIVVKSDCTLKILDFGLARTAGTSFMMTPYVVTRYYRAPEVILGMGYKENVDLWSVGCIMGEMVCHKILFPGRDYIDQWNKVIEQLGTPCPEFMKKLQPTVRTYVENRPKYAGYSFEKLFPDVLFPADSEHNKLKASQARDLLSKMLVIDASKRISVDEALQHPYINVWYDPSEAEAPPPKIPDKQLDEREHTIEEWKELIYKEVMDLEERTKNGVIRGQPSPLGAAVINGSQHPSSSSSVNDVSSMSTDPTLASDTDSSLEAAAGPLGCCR

[16] = target: KIT(A829P) (Homo sapiens, UniProt P10721, A829P)
[17] = target: NEK11 (Homo sapiens, UniProt Q8NG66)
Chain of NEK11 (Q8NG66 whole entry): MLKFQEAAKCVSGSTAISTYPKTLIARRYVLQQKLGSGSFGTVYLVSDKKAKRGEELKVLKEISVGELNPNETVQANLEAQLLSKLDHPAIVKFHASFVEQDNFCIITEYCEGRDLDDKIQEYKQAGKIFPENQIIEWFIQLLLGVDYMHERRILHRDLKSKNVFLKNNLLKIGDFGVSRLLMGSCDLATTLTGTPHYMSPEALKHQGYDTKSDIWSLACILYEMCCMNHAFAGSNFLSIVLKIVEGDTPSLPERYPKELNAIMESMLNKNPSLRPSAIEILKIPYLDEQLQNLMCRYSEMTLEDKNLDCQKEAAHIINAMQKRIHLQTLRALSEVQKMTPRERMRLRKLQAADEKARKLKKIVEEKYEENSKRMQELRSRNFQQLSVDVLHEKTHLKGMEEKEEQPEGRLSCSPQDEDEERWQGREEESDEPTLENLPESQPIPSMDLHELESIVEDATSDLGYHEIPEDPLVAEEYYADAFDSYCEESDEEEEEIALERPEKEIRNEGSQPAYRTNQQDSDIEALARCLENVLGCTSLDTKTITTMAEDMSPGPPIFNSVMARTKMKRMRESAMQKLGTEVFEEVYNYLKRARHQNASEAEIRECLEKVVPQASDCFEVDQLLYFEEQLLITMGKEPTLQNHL

[18] = target: NEK3 (Homo sapiens, UniProt P51956)
[19] = target: T7, PCTK2 (Homo sapiens, UniProt Q00537)
T7 construct: gene CDK17
T7 sequence (Q00537 whole entry): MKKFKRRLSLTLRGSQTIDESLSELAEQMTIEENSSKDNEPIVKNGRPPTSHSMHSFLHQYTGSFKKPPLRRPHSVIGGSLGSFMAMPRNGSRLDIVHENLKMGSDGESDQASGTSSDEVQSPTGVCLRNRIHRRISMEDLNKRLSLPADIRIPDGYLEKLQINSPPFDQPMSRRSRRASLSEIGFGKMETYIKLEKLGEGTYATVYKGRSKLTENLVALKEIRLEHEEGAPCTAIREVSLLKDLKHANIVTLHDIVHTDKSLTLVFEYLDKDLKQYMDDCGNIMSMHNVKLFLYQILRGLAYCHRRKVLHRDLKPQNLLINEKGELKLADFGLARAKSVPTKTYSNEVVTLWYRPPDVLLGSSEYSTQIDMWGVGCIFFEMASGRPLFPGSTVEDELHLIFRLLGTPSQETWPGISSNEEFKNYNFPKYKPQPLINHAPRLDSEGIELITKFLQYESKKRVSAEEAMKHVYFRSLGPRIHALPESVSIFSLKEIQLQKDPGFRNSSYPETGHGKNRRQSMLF

[20] = target: PDGFRA (Homo sapiens, UniProt P16234)
[21] = target: PIM2 (Homo sapiens, UniProt Q9P1W9)
Chain of PIM2 (Q9P1W9 whole entry): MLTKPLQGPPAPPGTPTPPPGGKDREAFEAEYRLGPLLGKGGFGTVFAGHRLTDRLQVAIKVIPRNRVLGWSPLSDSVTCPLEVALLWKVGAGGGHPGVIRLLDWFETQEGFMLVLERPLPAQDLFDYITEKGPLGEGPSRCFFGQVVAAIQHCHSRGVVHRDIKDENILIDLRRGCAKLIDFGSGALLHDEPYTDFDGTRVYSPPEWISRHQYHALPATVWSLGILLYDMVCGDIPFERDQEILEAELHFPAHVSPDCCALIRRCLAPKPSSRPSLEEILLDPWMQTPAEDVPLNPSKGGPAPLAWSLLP

[22] = target: PKMYT1 (Homo sapiens, UniProt Q99640)
[23] = target: VRK2 (Homo sapiens, UniProt Q86Y07)
Chain of VRK2 (Q86Y07 whole entry): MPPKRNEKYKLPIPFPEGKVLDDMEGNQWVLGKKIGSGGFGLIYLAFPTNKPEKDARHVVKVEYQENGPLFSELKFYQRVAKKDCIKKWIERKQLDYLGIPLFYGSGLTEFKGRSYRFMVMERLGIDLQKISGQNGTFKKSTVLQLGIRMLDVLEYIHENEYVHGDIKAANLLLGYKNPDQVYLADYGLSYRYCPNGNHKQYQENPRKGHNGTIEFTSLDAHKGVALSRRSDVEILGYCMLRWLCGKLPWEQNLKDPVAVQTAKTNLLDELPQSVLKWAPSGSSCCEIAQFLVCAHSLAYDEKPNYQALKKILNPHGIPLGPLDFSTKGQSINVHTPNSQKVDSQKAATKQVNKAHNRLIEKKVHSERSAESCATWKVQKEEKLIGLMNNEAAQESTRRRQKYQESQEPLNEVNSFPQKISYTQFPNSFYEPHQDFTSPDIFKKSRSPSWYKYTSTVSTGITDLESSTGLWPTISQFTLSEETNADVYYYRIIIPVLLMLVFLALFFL

[24] = target: WNK4 (Homo sapiens, UniProt Q96J92)

`Cc1ccc(NC(=O)c2cccc(C(F)(F)F)c2)cc1Nc1cc(-c2cccnc2)nc2[nH]ccc12` [HZX-02-059] gave a remaining binding at 1 µM [1] of 48%, a remaining binding at 1 µM [2] of 77% and a remaining binding at 1 µM [3] of 98%. For the same compound, the remaining binding at 1 µM [4] was 92%, the remaining binding at 1 µM [5] was 97% and the remaining binding at 1 µM [6] was 77%. The remaining binding at 1 µM [7] was 79%, the remaining binding at 1 µM [8] was 42% and the remaining binding at 1 µM [9] was 100%. It also gave a remaining binding at 1 µM [10] of 99%, a remaining binding at 1 µM [11] of 92% and a remaining binding at 1 µM [12] of 100%. It also gave a remaining binding at 1 µM [13] of 84%, a remaining binding at 1 µM [14] of 100% and a remaining binding at 1 µM [15] of 84%. The remaining binding at 1 µM [16] was 84%, the remaining binding at 1 µM [17] was 100% and the remaining binding at 1 µM [18] was 54%. The remaining binding at 1 µM [19] was 100%, the remaining binding at 1 µM [20] was 66% and the remaining binding at 1 µM [21] was 88%. For the same compound, the remaining binding at 1 µM [22] was 96%, the remaining binding at 1 µM [23] was 100% and the remaining binding at 1 µM [24] was 100%.
